In patent US11091428B2 (HAPLOGEN GMBH, priority 2016, dated 2021) one finds IC50 and EC50 data, which are given here for 22 compounds.

Where only a bound is given, the exact number is not on record here.

One assay concerns the target T1, PLA2G16 (Homo sapiens, UniProt P53816).
T1 construct: Hexa-His (N); made in house; host or cells: E. coli BL21(DE3)
T1 sequence (P53816 1-162): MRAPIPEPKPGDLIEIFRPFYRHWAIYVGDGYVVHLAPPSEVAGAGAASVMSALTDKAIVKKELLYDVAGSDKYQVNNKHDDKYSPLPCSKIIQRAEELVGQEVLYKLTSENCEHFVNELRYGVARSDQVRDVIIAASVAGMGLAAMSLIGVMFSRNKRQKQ
Description: Enzyme activity assay for PLA2G16 (Red/Green BODIPY PC-A2 fluorescence). Type of assay: biochemical. The conditions noted are these: His-tagged PLA2G16, 4 min pre-incubation, 2 nM to 50 μM; read-out: IC50 values of the compounds determined in the enzyme activity assay for PLA2G16. The text has this: A cDNA for PLA2G16(NM_007069) was custom-synthesized by Genscript (Piscataway, USA) and inserted into a pET-based bacterial expression vector [Moffatt, B. A. and Studier, F. W. (1986) J. Mol. Biol. 189, 113-130; Rosenberg, A. H., Lade, B. N., Chui, D., Lin, S., Dunn, J. J., and Studier, F. W. (1987) Gene 56, 125-135], enabling the expression of N-terminally Hexa-His-tagged PLA2G16. E. coli BL21(DE3) (Agilent) were transformed with pET-His-PLA2G16according to the manufacturer's instructions and plated on Carbenicillin-containing agar plates (final concentration: 100 μg/mL). A single clone was in occulated in 100 mL LB medium supplemented with 100 μg/mL Carbenicillin and the in occulated culture was grown at 37° C. overnight in a rotary shaker. On the next day, the bacterial culture was diluted in LB medium supplemented with 100 μg/mL Carbenicillin (30 mL overnight culture in 800 mL total culture volume). Bacteria were grown at 37° C. until the OD600 reached 0.6. Gene expression was induced by addition of 1 mM isopropyl-β-D-thiogalactopyranosid (IPTG) for 2 h at 18° C. Subsequently, bacteria were harvested by centrifugation (15 min; 10,000×g; 4° C.) and frozen at −80° C. The bacterial pellet was resuspended in Buffer A (50 mM Tris/HCl pH 7.5, 500 mM NaCl, 5% glycerol, 5 mM β-Mercaptoethanol and 1 mM PMSF) and lysed by addition of 1 mg/mL lysozyme (Sigma Aldrich) and 100 μg/mL DNasel-(Roche). The sample was incubated at 30° C. for 30 min to allow lysis to occur. Then, the lysate was cleared by centrifugation (15,000×g, 15 min, 4° C.) and incubated with 1.5 mL Ni-NTA agarose suspension (Qiagen) for 60 min at 4° C. The Ni-NTA agarose was washed with 10 mL Buffer A. Bound protein was eluted by applying a manual gradient of Buffer A supplemented with increasing concentrations of imidazole (Sigma Aldrich; 25/50/75/100/250 mM). Purified fractions were analyzed by SDS-PAGE followed by Coomassie staining to assess the purity.
Activity of the protein was assessed as follows: Red/Green BODIPY® PC-A2 (Invitrogen, 1 mM in DMSO) was mixed with equal volumes of 1,2-Dioleoyl-sn-glycero-3-phosphocholine (DOPC; Sigma Aldrich, 10 mM in Ethanol) and 1,2-Dioleoyl-sn-glycero-3-phospho-rac-(1-glycerol) (DOPG; Sigma Aldrich, 10 mM in Ethanol) and 0.5 volumes of Cholesterol (CHOL; Sigma Aldrich, 10 mM in Ethanol) and vortexed for 5 s. The mixture (Red/Green BODIPY® PC-A2/DOPC/DOPG/CHOL) was diluted 1:91.4 in activity assay buffer (50 mM Tris/HCl pH 8.5, 100 mM NaCl) using a small-orifice pipette tip under constant vortexing. In the following, this preparation will be referred to as the “substrate solution”.
In order to evaluate their inhibitory potential, compounds were dissolved at 10 mM concentration in DMSO and directly spotted into assay plates (Corning, Cat. No. 3576) using acoustic liquid transfer (Labcyte Echo 525). Each compound was spotted at increasing concentrations, ranging from 2 nM to 50 μM (concentration in the final assay volume). 50 μl of PLA2G16 enzyme solution (diluted in activity buffer, supplemented with 5 mM L-Glutathione; Sigma Aldrich) was pre-incubated with compounds for 4 min., followed by addition of 50 μl of substrate solution. Fluorescence was recorded immediately after substrate addition for a total time of 10 min. using a SpectraMax M5 multimode reader (Excitation wavelength: 480 nm, emission wavelength: 530 nm). The relative increase of fluorescence over time is referred to as the enzyme activity. Half-maximal inhibitory concentrations (IC50) were derived by non-linear regression analysis using the drc package in R (R Development. Core Team, 2005).

The test system of assay [1] is picornaviruses (CVB1, HRV-A2, HRV-A23, EV-68). Put plainly: Anti-picornavirus cytopathic effect (CPE) reduction assay on HeLa H1 cells. Type of assay: cell-based. The conditions noted are these: Enterovirus B, HeLa H1, 48 h, HeLa H1 cells, 48 h, category from averaging the EC50 values from four picornaviruses (CVB1, HRV-A2, HRV-A23, EV68); read-out: EC50 values of the compounds determined in the anti-picornavirus assay. How it is done: The antiviral activity of selected compounds was tested using a cytopathic effect (CPE) reduction assay on HeLa H1 cells (ATCC CRL-1958). Briefly, cells were seeded in 96-well dishes (2×10^4 cells/well) in DMEM medium (Life technologies) supplemented with 10% FBS and PenStrep solution (100 U/mL Penicillin and 100 μg/mL streptomycin) and incubated at 37° C., 5% CO2 ovemight. The next day, cells were pre-treated with serial dilutions of the compound in DMEM medium supplemented with 2% FBS and PenStrep for 2 h at 37° C., 5% CO2. Next, cells were infected with virus (CVB1, HRV-A2, HRV-A23, EV-68) at an multiplicity of infection (MOI) which results in a complete virus-induced CPE within 2 days in control wells (infected and vehicle-treated). After 48 h, supematants were aspirated and 50 μl/well of CellTiterBlue reagent (Promega) diluted 1:5 in DMEM+2% FBS, was added to the cells. Plates were returned to the incubator and allowed to develop for 1.5 h. After that, plates were equilibrated to RT and subsequently, fluorescence was recorded (Excitation wavelength: 560 nm; emission wavelength: 590 nm) using a SpectraMax M5 multimode plate reader. Viability of cells was calculated according to the formula: V=(RFUCpd−RFUVeh/(RFUM−RFUVeh), where RFUCpd refers to infected and compound-treated cells, RFUVeh to infected and vehicle-treated cells and RFUM to uninfected and vehicle treated cells. Half-maximal effective concentrations (EC50) were calculated by non-linear regression analysis using the drc package in R (R Development. Core Team, 2005). EC50 categories as presented in Table 2 were calculated by averaging the EC50 values from four picornaviruses (CVB1, HRV-A2, HRV-A23, EV68).
For orientation: Damage to the host cells serves as the signal in cytopathic effect assays.

What is called IC50 is the concentration needed to halve the response being measured. Usually EC50 stands for the concentration giving half of the maximal effect. For `Cn1nccc1CNC(=O)C(=O)[C@H]1CCC(=O)N1Cc1ccccc1` [FP 296, 2-[(2R)-1-Benzyl-5-oxopyrrolidin-2-yl]-N-[(1-methyl-1H-pyrazol-5-yl)methyl]-2-oxoacetamide], the IC50 at PLA2G16 was less than 1000 nM. In addition, the EC50 in assay [1] fell in the range of 1000 to 10000 nM.
Take `CC(C)NC(=O)C(=O)C1CCC(=O)N1Cc1ccccc1` (centres unmarked) [FP 308, 2-(1-Benzyl-5-oxopyrrolidin-2-yl)-2-oxo-N-(propan-2-yl)acetamide]: at PLA2G16, the IC50 is less than 1000 nM. Also, in assay [1], the EC50 was less than 1000 nM.
Turning to `CC(C)C(=O)N1CCC(NC(=O)C(=O)[C@H]2CCC(=O)N2Cc2ccccc2)CC1` [FP 315, 2-[(2R)-1-Benzyl-5-oxopyrrolidin-2-yl]-N-[1-(2-methylpropanoyl)piperidin-4-yl]-2-oxoacetamide], at PLA2G16, the IC50 is less than 1000 nM. Moreover, the EC50 in assay [1] was 1000 to 10000 nM.
The matching figures for `COc1ccccc1N(C=O)C(C)C(=O)C(=O)NC(C)(C)c1cccc(Cl)c1` (centres unmarked) [FP 11, N-[2-(3-Chlorophenyl)propan-2-yl]-3-[N-(2-methoxyphenyl)formamido]-2-oxobutanamide]: less than 1000 nM and less than 1000 nM.
Regarding `CC(NC(=O)c1ccccc1)C(=O)C(=O)NCC1CCCC1` (centres unmarked) [FP 180, N-(Cyclopentylmethyl)-2-oxo-3-(phenylformamido)butanamide], the IC50 on PLA2G16 was less than 1000 nM. The EC50 in assay [1] lay in the range of 1000 to 10000 nM.
The matching figures for `CCCC(NC(=O)CN1CCN(C)CC1)C(=O)C(=O)NCC1CCCCC1` (centres unmarked) [FP 214, N-(Cyclohexylmethyl)-3-[2-(4-methylpiperazin-1-yl)acetamido]-2-oxohexanamide]: 1000 to 10000 nM and greater than 10000 nM.
The matching figures for `CC(C(=O)C(=O)NCC1CC1)N(Cc1ccccc1)S(C)(=O)=O` (centres unmarked) [FP 222, 3-(N-Benzylmethanesulfonamido)-N-(cyclopropylmethyl)-2-oxobutanamide]: less than 1000 nM and greater than 10000 nM.
On to `O=C(NCC1CC1)C(=O)C1CCCC(=O)N1Cc1ccccc1` (centres unmarked) [FP 204, 2-(1-Benzyl-6-oxopiperidin-2-yl)-N-(cyclopropylmethyl)-2-oxoacetamide], for which the IC50 at PLA2G16 is less than 1000 nM. In assay [1], the 50% effective concentration (EC50) was 1000 to 10000 nM.
For `CNC(=O)C(=O)[C@H]1CCC(=O)N1Cc1ccc(Cl)cc1` [FP 283, 2-[(2R)-1-[(4-Chlorophenyl)methyl]-5-oxopyrrolidin-2-yl]-N-methyl-2-oxoacetamide], the IC50 at PLA2G16 is less than 1000 nM. In addition, the EC50 in assay [1] was in the range of 1000 to 10000 nM.
As for `CC(C)CC(C(=O)C(=O)NCC1CC1)N(C=O)CC1CCCO1` (centres unmarked) [FP 74, N-(Cyclopropylmethyl)-5-methyl-2-oxo-3-{N[(oxolan-2-yl)methyl]formamido} hexanamide], at PLA2G16, the IC50 was less than 1000 nM. Moreover, the EC50 in assay [1] was in the range of 1000 to 10000 nM.
The matching figures for `Cc1cccc(C(=O)NC(C)C(=O)C(=O)NCC2CC2)c1` (centres unmarked) [FP 171, N-(Cyclopropylmethyl)-3-[(3-methylphenyl)formamido]-2-oxobutanamide]: 1000 to 10000 nM and greater than 10000 nM.
Turning to `CC(NS(=O)(=O)c1ccc(F)cc1)C(=O)C(=O)NCC1CC1` (centres unmarked) [FP 219, N-(Cyclopropylmethyl)-3-(4-fluorobenzenesulfonamido)-2-oxobutanamide], the IC50 on PLA2G16 is less than 1000 nM. Also, in assay [1], the half-maximal effective concentration (EC50) lay within 1000 to 10000 nM.
On to `CC(C)NC(=O)C(=O)[C@H]1CCC(=O)N1Cc1ccccc1` [FP 238, 2-[(2R)-1-Benzyl-5-oxopyrrolidin-2-yl]-2-oxo-N-(propan-2-yl)acetamide], for which the IC50 at PLA2G16 was less than 1000 nM. The concentration giving a half-maximal response (EC50) in assay [1] was less than 1000 nM.
Regarding `CC(C(=O)C(=O)NC1CC1)N(C=O)C1CCCCC1` (centres unmarked) [FP 42, 3-(N-Cyclohexylformamido)-N-cyclopropyl-2-oxobutanamide], on PLA2G16, the IC50 was less than 1000 nM. For the same compound, the EC50 in assay [1] was 1000 to 10000 nM.
`O=C(N[C@@H]1CCCC[C@@H]1O)C(=O)[C@H]1CCC(=O)N1Cc1ccccc1` (single isomer, unassigned) [FP 272]: the 50% inhibitory concentration (IC50) at PLA2G16 lay within 1000 to 10000 nM. Also, in assay [1], the EC50 is greater than 10000 nM.
The like results for `C[C@H]1CC(=O)N(Cc2ccccc2)[C@H]1C(=O)C(=O)NC1CC1` (single isomer, unassigned) [FP 341] were, in that order, less than 1000 nM and 1000 to 10000 nM.
The like results for `O=C(NCC1CCOCC1)C(=O)C1CCC(=O)N1Cc1ccc(Cl)cc1` (centres unmarked) [FP 235, 2-{1-[(4-Chlorophenyl)methyl]-5-oxopyrrolidin-2-yl}-N-[(oxan-4-yl)methyl]-2-oxoacetamide] were, in that order, less than 1000 nM and 1000 to 10000 nM.
Turning to `CCNC(=O)C(=O)[C@H]1CCC(=O)N1Cc1ccccc1` [FP 265, 2-[(2R)-1-Benzyl-5-oxopyrrolidin-2-yl]-N-ethyl-2-oxoacetamide], the IC50 on PLA2G16 is less than 1000 nM. Also, the 50% effective concentration (EC50) in assay [1] was less than 1000 nM.
Turning to `COc1ccccc1N(C=O)C(C)C(=O)C(=O)NCCc1cccc(Cl)c1` (centres unmarked) [FP 97, N-[2-(3-Chlorophenyl)ethyl]-3-[N-(2-methoxyphenyl)formamido]-2-oxobutanamide], the IC50 at PLA2G16 was less than 1000 nM. The EC50 in assay [1] was less than 1000 nM.
Regarding `CC(NS(=O)(=O)c1ccccc1)C(=O)C(=O)NCC1CC1` (centres unmarked) [FP 187, 3-Benzenesulfonamido-N-(cyclopropylmethyl)-2-oxobutanamide], the IC50 at PLA2G16 is less than 1000 nM. Further, in assay [1], the EC50 lay in the range of 1000 to 10000 nM.
Take `CC(C(=O)C(=O)NCc1cccc(Cl)c1)N(C=O)CC1CCOCC1` (centres unmarked) [FP 24, N-[(3-Chlorophenyl)methyl]-3-{N[(oxan-4-yl)methyl]formamido}-2-oxobutanamide]: at PLA2G16, the half-maximal inhibitory concentration (IC50) is less than 1000 nM. In addition, the EC50 in assay [1] is 1000 to 10000 nM.
Take `O=C(NCc1ccccn1)C(=O)C1CCC(=O)N1Cc1ccccc1` (centres unmarked) [FP 230, 2-(1-Benzyl-5-oxopyrrolidin-2-yl)-2-oxo-N-[(pyridin-2-yl)methyl]acetamide]: the IC50 on PLA2G16 was less than 1000 nM. The 50% effective concentration (EC50) in assay [1] is greater than 10000 nM.
